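Cultured in 96-well plates, cells were exposed to test compound for 48 hours across five concentrations. GI50 marks 50% less growth. Definition used: TGI = concentration required for complete inhibition of growth.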

Test systems include BT-549 breast; CAKI-1 renal; K-562 leukemia; MCF7 breast; MDA-MB-231 breast; MDA-N; SF-295 CNS; SNB-75 CNS; UACC-62 melanoma; UO-31 renal.
Test in all cases: NCI-60 cell line screen, 48 h

Turning to `CN(C)CCNc1ccc2ncnc3c2c1C(=O)c1ccccc1-3`, the TGI in the test on BT-549 breast was 21 µM; in the test on CAKI-1 renal, 2.01 µM; in the test with K-562 leukemia, 6.75 µM; in the test on MCF7 breast, 2.57 µM; in the test on MDA-MB-231 breast it was 4.1 µM; in the test with MDA-N it was 4.11 µM. The TGI was determined as 2.88 µM with SF-295 CNS, 6.96 µM with SNB-75 CNS, 4.92 µM with UACC-62 melanoma and 12.9 µM in the test with UO-31 renal.
As for `Cc1nc(Cl)c2sc(=S)n(-c3ccc(F)cc3)c2n1`, the TGI in the test with BT-549 breast is 12.1 µM; in the test with CAKI-1 renal, 3.11 µM; in the test with K-562 leukemia it was more than 100 µM; with MCF7 breast it was 13.2 µM; in the test on MDA-MB-231 breast it was 20.7 µM; in the test with MDA-N it was 3.95 µM. The TGI with SF-295 CNS turned out to be 22.8 µM; in the test on SNB-75 CNS, 18.1 µM; with UACC-62 melanoma, 24 µM; in the test with UO-31 renal, 3.17 µM.
For the molecule `CO[C@H]1[C@@H](O)[C@@H](C)O[C@@H](O[C@H]2CC[C@@]3(C)[C@H](CC[C@@H]4[C@@H]3CC[C@]3(C)[C@@H](C5=CC(=O)OC5)CC[C@]43O)C2)[C@@H]1O`, the TGI with BT-549 breast amounted to 0.0236 µM; with CAKI-1 renal, 0.0128 µM; in the test with K-562 leukemia, 0.371 µM; with MCF7 breast, 1.1 µM; with MDA-MB-231 breast it was 0.269 µM; in the test with MDA-N, 0.0504 µM. Besides, the TGI amounted to 0.157 µM in the test with SF-295 CNS, 0.0271 µM in the test with SNB-75 CNS, 0.0228 µM in the test on UACC-62 melanoma and 0.0108 µM with UO-31 renal. For the same molecule, in the test on K-562 leukemia, the GI50 is 0.00633 µM.
Turning to `CCC(CS(=O)(=O)O)[N+](=O)[O-]` (stereo not drawn), the TGI with BT-549 breast, with CAKI-1 renal, in the test on K-562 leukemia, with MCF7 breast, in the test with MDA-MB-231 breast and in the test on MDA-N was more than 100 µM each time. Besides, the TGI in the test on SF-295 CNS, in the test with SNB-75 CNS, in the test on UACC-62 melanoma and in the test on UO-31 renal was more than 100 µM throughout.
Consider `Nc1ccc2c(c1)C1=NNC(=O)CC1C2` (stereo not drawn), for which the TGI in the test with CAKI-1 renal is more than 100 µM; in the test with K-562 leukemia it was more than 100 µM; in the test on MCF7 breast, more than 31.6 µM; in the test on SF-295 CNS it was more than 100 µM; in the test on SNB-75 CNS, more than 100 µM; in the test on UACC-62 melanoma it was more than 100 µM. For the same molecule, in the test on UO-31 renal, the TGI was more than 100 µM.
`COc1ccc(-c2cc(-c3ccccc3)n(C3OCC(OC(C)=O)C(OC(C)=O)C3OC(C)=O)c(=S)c2C#N)cc1` (stereo not drawn): the TGI with BT-549 breast, in the test on CAKI-1 renal, with K-562 leukemia, in the test on MCF7 breast, in the test on MDA-MB-231 breast and with MDA-N was more than 100 µM throughout. The TGI in the test on SF-295 CNS, in the test with SNB-75 CNS, with UACC-62 melanoma and with UO-31 renal was more than 100 µM each time.
As for `CC1SC(c2ccccc2)N(Nc2c3ccccc3nc3ccccc23)C1=O` (stereo not drawn), the TGI in the test with CAKI-1 renal is more than 100 µM; in the test on K-562 leukemia, more than 100 µM; with SF-295 CNS, more than 100 µM; with SNB-75 CNS, more than 100 µM; with UACC-62 melanoma, more than 100 µM; in the test with UO-31 renal it was 82.3 µM.
Take `[N-]=[N+]=Nc1ccc(NCCCCCC(=O)ON2C(=O)CCC2=O)c([N+](=O)[O-])c1`: the TGI in the test on BT-549 breast, in the test on CAKI-1 renal, in the test on K-562 leukemia, in the test on MCF7 breast, with MDA-MB-231 breast and in the test with SF-295 CNS was more than 100 µM each time. Also, the TGI in the test on SNB-75 CNS, in the test on UACC-62 melanoma and in the test on UO-31 renal was more than 100 µM in each case.
On to `COc1cc(-c2n/c(=C\c3c(O)[nH]c4ccc(Cl)cc34)cc3c2=Nc2ccccc2-3)cc(OC)c1OC`, for which the GI50 with BT-549 breast is 2.43 µM; in the test on CAKI-1 renal it was 1.97 µM; in the test with K-562 leukemia, 0.728 µM; in the test on MCF7 breast it was 0.316 µM; in the test with MDA-MB-231 breast, 1.47 µM; in the test with SF-295 CNS, 3.31 µM. The GI50 in the test with SNB-75 CNS is 1.72 µM; in the test on UACC-62 melanoma it was 1.8 µM; in the test with UO-31 renal, 1.29 µM. Moreover, the TGI with BT-549 breast turned out to be 7.45 µM; in the test on CAKI-1 renal it was 6.72 µM; in the test on K-562 leukemia, 10.1 µM; in the test on MCF7 breast, 1.38 µM; in the test on MDA-MB-231 breast it was 3.12 µM; with SF-295 CNS it was 10.2 µM. For the same molecule, the TGI in the test on SNB-75 CNS was found to be 4.84 µM; in the test with UACC-62 melanoma it was 3.42 µM; in the test on UO-31 renal, 2.72 µM.
Take `NCC[Se][Se]CCN`: the TGI in the test on BT-549 breast is 27.8 µM; with CAKI-1 renal, 22.8 µM; in the test with K-562 leukemia it was 64 µM; in the test on MCF7 breast it was 33.1 µM; with MDA-MB-231 breast, 25.7 µM; in the test on MDA-N, 23.4 µM. Also, the TGI in the test on SF-295 CNS was 11.5 µM; in the test with SNB-75 CNS it was 27.4 µM; with UACC-62 melanoma, 31.1 µM; in the test on UO-31 renal, 13.3 µM.
As to `COc1ccc(OC)c([N+](=O)[O-])c1-c1nc2sccn2c1/C=N/N=C(N)N`, the TGI with BT-549 breast is more than 100 µM; in the test with CAKI-1 renal, more than 100 µM; with K-562 leukemia it was more than 100 µM; in the test with MCF7 breast, 54.2 µM; in the test on MDA-MB-231 breast, more than 100 µM; in the test with MDA-N, more than 100 µM. The TGI in the test on SF-295 CNS, in the test on UACC-62 melanoma and with UO-31 renal was more than 100 µM each time.
Consider `CC(CN(C)C)C(=O)c1ccccc1C(=O)O` (stereo not drawn), for which the TGI in the test with BT-549 breast was 41.7 µM; in the test on CAKI-1 renal, 83.9 µM; in the test on K-562 leukemia it was more than 100 µM; in the test on MCF7 breast it was more than 100 µM; in the test on MDA-MB-231 breast, 81.6 µM; in the test on MDA-N it was more than 100 µM. Also, the TGI in the test on SF-295 CNS is more than 100 µM; in the test on UACC-62 melanoma it was 51.3 µM; in the test on UO-31 renal, more than 100 µM.
Take `O=C(CCCn1c(=O)c2sc3ccccc3c2n2nnc(-c3ccccc3)c12)NCCc1cnc[nH]1`: the GI50 in the test on BT-549 breast is 17.3 µM; with CAKI-1 renal it was 0.181 µM; in the test with MCF7 breast, 1.45 µM; in the test with MDA-MB-231 breast it was 1.92 µM; in the test on SNB-75 CNS, 1.86 µM; with UACC-62 melanoma, 1.91 µM. Further, the TGI was 41.5 µM in the test with BT-549 breast; 1.71 µM with CAKI-1 renal; 3.08 µM with MCF7 breast; 3.61 µM in the test on MDA-MB-231 breast; 4.03 µM in the test on SNB-75 CNS; 3.56 µM with UACC-62 melanoma.
Turning to `O=[N+]([O-])c1ccc(N=Nc2c(O)ccc3cc(S(=O)(=O)O)ccc23)cc1`, the TGI in the test on BT-549 breast, in the test on CAKI-1 renal, with K-562 leukemia, in the test on MDA-MB-231 breast, with MDA-N and in the test on SF-295 CNS was more than 100 µM each time. Further, the TGI in the test with SNB-75 CNS, with UACC-62 melanoma and in the test on UO-31 renal was more than 100 µM each time.
For the molecule `CNC(C)Cc1ccccc1O` (stereo not drawn), the TGI with CAKI-1 renal, in the test on K-562 leukemia, in the test with SF-295 CNS, in the test with SNB-75 CNS, in the test on UACC-62 melanoma and with UO-31 renal was more than 100 µM throughout.
With `CCn1nc(C)c2c1C(=O)NC(C)C(=O)N2` (stereo not drawn), the TGI in the test on BT-549 breast, with CAKI-1 renal, with MDA-N, with SF-295 CNS, with SNB-75 CNS and in the test with UACC-62 melanoma was more than 100 µM in each case. The same molecule registered a TGI in the test with UO-31 renal of more than 100 µM.
On to `CC(C)(N)CO[C@H]1C[C@H]2CC[C@@]1(C)C2(C)C`, for which the TGI with BT-549 breast was found to be 60.5 µM; in the test on CAKI-1 renal, 70.6 µM; with K-562 leukemia it was 43.3 µM; in the test on MCF7 breast, 37.1 µM; with MDA-MB-231 breast, 36.5 µM; in the test with MDA-N it was 30.2 µM. Also, the TGI with SF-295 CNS is 39.3 µM; in the test with SNB-75 CNS, 39.3 µM; with UACC-62 melanoma, 34.3 µM; with UO-31 renal, 37.7 µM.
`COc1cc2cc[n+](C)c(Cc3ccccc3)c2cc1OC`: the TGI in the test on K-562 leukemia, in the test with SF-295 CNS, with SNB-75 CNS, in the test with UACC-62 melanoma and in the test on UO-31 renal was more than 100 µM each time.
As for `C=C(C)[C@@H]1CC[C@]2(C)CC[C@]3(C)[C@H](CC[C@@H]4[C@@]5(C)CC[C@H](OC(=O)c6ccccc6)C(C)(C)[C@@H]5CC[C@]43C)[C@@H]12`, the TGI in the test with BT-549 breast, in the test with CAKI-1 renal, with K-562 leukemia, in the test with MCF7 breast, in the test on MDA-MB-231 breast and in the test with MDA-N was more than 100 µM in each case. Moreover, the TGI in the test with SF-295 CNS, with SNB-75 CNS, with UACC-62 melanoma and in the test with UO-31 renal was more than 100 µM throughout.
For `O=S1(=O)NNC(=NCc2ccc(Cl)c(Cl)c2)c2ccccc21`, the TGI with CAKI-1 renal, in the test with K-562 leukemia, in the test with SF-295 CNS, with UACC-62 melanoma and in the test on UO-31 renal was more than 100 µM throughout.

Source of the values: PubChem BioAssay (NCI).
